Test results from patent publication US10273305B2, “Bispecific CXCR4-CD4 polypeptides with potent anti-HIV activity” (Ablynx N.V., priority 2015, dated 2019).
Values joined by “and” are separate entries in the source; they are usually repeats but may differ in a detail not shown here. Equal entries are not always repeated. Where two headings read alike, the source gives them in different places.

Legend:
[1] = test system: HIV-1 X4 NL4.3 strain; assay: HIV-1 NL4.3 infection of PHA-stimulated PBMCs, p24 Ag ELISA; format: cell-based
[2] = test system: dual-tropic (R5/X4) HIV-1 strain HE; assay: microbe, parasite or virus in culture; conditions: Human immunodeficiency virus 1, MT4, read-out: IC50 MT-4 HE R5/X4 n = 3
[3] = test system: HIV-1 NL4.3 (X4); assay: HIV-1 NL4.3 infection of U87 cells; conditions: Human immunodeficiency virus 1, U-87 MG, read-out: IC50 U87 + NL 4.3 (X4) n = 3
[4] = test system: NL4.3 3F11 res; assay: microbe, parasite or virus in culture; format: cell-based, HIV-1; conditions: Human immunodeficiency virus 1, TZM-bl, read-out: IC50 TZM-bl X4 NL4.3 3F11 res n = 3
[5] = test system: HIV-1 X4 UG270 clinical isolate (clade D); assay: HIV-1 UG270 infection of PBMCs, p24; format: cell-based; conditions: Human immunodeficiency virus 1; PBMC, average 2 donors
[6] = test system: NL4.3 3F11 res.; assay: microbe, parasite or virus in culture; format: cell-based, HIV-1; conditions: Human immunodeficiency virus 1, PBMC, read-out: IC50 PBMC NL4.3 3F11 res. n = 2
[7] = test system: HIV-1 CI#17 clinical isolate (clade B); assay: HIV-1 CI#17 infection of PBMCs, p24; format: cell-based; conditions: Human immunodeficiency virus 1; PBMC, average 2 donors
[8] = test system: HIV-1 CM237 clinical isolate (clade B); assay: HIV-1 CM237 infection of PBMCs, p24; format: cell-based; conditions: Human immunodeficiency virus 1; PBMC, average 2 donors
[9] = test system: CXCR4-using (X4) HIV-1 clone NL4.3; assay: microbe, parasite or virus in culture; format: cell-based
[10] = test system: NL4.3 281F12 res.; assay: microbe, parasite or virus in culture; format: cell-based, HIV-1; conditions: Human immunodeficiency virus 1, PBMC, read-out: IC50 PBMC NL4.3 281F12 res. n = 2
[11] = test system: dual-tropic R5/X4 HIV-1 HE; assay: HIV-1 HE infection of PBMCs, p24; format: cell-based; conditions: Human immunodeficiency virus 1, PBMC, read-out: IC50 PBMC HE R5/X4 n = 9
[12] = test system: HIV-1 NL4.3 3F11-resistant virus; assay: microbe, parasite or virus in culture; format: cell-based
[13] = test system: NL4.3 281F12 res; assay: microbe, parasite or virus in culture; format: cell-based, HIV-1; conditions: Human immunodeficiency virus 1, TZM-bl, read-out: IC50 TZM-bl X4 NL4.3 281F12 res n = 3
[14] = test system: X4 HIV-1 NL4.3 WT; assay: TZM-bl luciferase assay, NL4.3 WT; format: cell-based; conditions: Human immunodeficiency virus 1, TZM-bl, read-out: IC50 TZM-bl X4 NL4.3 WT n = 4
[15] = test system: HUT-78/HIV-1 NL4.3; assay: HIV-1-mediated cell-cell fusion, HUT-78/NL4.3 with SupT1 cells
[16] = test system: AMD3100 resistant virus; assay: microbe, parasite or virus in culture; format: cell-based, HIV-1; conditions: Human immunodeficiency virus 1, MT4, read-out: IC50 MT-4 AMD-3100 res.
[17] = test system: CXCL-12 res. HIV-1 NL4.3 variant; assay: microbe, parasite or virus in culture; format: cell-based; conditions: Human immunodeficiency virus 1, MT4, read-out: IC50 MT-4 CXCL-12 res.
[18] = test system: HIV-1 NL4.3 281F12-resistant virus; assay: microbe, parasite or virus in culture; format: cell-based
[19] = test system: dual-tropic (R5/X4) HIV-2 ROD strain; assay: microbe, parasite or virus in culture; conditions: Human immunodeficiency virus 2, MT4, read-out: IC50 MT-4 HIV-2 ROD R5/X4 n = 3
[20] = test system: HUT-78/HIV1 IIIb; assay: HIV-1-mediated cell-cell fusion, HUT-78/IIIb with SupT1 cells; conditions: Human immunodeficiency virus 1, IIIB, read-out: IC50 syncytia formation SupT1 + HUT-78/IIIb n = 3

Q: With c1cc(CN2CCCNCCNCCCNCC2)ccc1CN1CCCNCCNCCCNCC1 [AMD3100, plerixafor] as the compound, how does the IC50 ([1]; Human immunodeficiency virus 1, PBMC, read-out: IC50 PBMC + NL 4.3 (X4) n = 3, Table 8.1.1) read?
A: 4.5 nM

Q: And the IC50 ([1]; Human immunodeficiency virus 1, PBMC, read-out: IC50 PBMC NL4.3 WT n = 10, Table 8.3)?
A: 4.5 nM

Q: And the IC50 ([1]; Human immunodeficiency virus 1, PBMC, read-out: IC50 PBMC NL4.3 X4 n = 10, Table 8.1.2)?
A: 3.3 nM

Q: What about the IC50 ([1]; Human immunodeficiency virus 1, PBMC, read-out: IC50 HIV-1 NL4.3 in PBMC) of the same compound?
A: 3.3 nM

Q: What about the IC90 ([1]; Human immunodeficiency virus 1, PBMC, average 2 donors) of the same compound?
A: 42 nM

Q: What about the IC50 ([1]; Human immunodeficiency virus 1, PBMC, average 2 donors, read-out: IC50 NL4.3 X4) of the same compound?
A: 13 nM

Q: And the IC50 [2]?
A: 3.9 nM

Q: What about the IC50 [3] of the same compound?
A: 10 nM

Q: And the IC50 [4]?
A: 915 nM

Q: And the IC50 [5]?
A: 16 nM

Q: And the IC90 [5]?
A: 41 nM

Q: And the IC50 [6]?
A: 20 nM

Q: And the IC50 [7]?
A: 22 nM

Q: And the IC90 [7]?
A: 47 nM

Q: And the IC50 [8]?
A: 10 nM

Q: What about the IC90 [8] of the same compound?
A: 24 nM

Q: What about the IC50 ([9]; Human immunodeficiency virus 1, MT4, read-out: IC50 MT-4 + NL 4.3 (X4) n = 3) of the same compound?
A: 4.75 nM

Q: What about the IC50 ([9]; Human immunodeficiency virus 1, MT4, read-out: IC50 MT-4 NL4.3 X4 n = 3) of the same compound?
A: 4.28 nM

Q: What about the IC50 ([9]; Human immunodeficiency virus 1, MT4, read-out: IC50 MT-4 NL4.3 wt) of the same compound?
A: 4.28 nM

Q: What about the IC50 ([9]; Human immunodeficiency virus 1, MT4, read-out: IC50 X4 NL4.3 strain in MT-4 cells) of the same compound?
A: 6.26 nM

Q: What about the IC50 [10] of the same compound?
A: 57 nM

Q: What about the IC50 [11] of the same compound?
A: 26 nM

Q: What about the IC50 ([12]; Human immunodeficiency virus 1, MT4, read-out: IC50 MT-4 3F11 res.) of the same compound?
A: 18.5 nM

Q: And the IC50 ([12]; Human immunodeficiency virus 1, MT4, read-out: IC50 against HIV-1 NL4.3 3F11res virus)?
A: 18 nM and 0.014 µg/mL

Q: What about the IC50 [13] of the same compound?
A: 4920 nM

Q: What about the IC50 [14] of the same compound?
A: 411 nM

Q: What about the IC50 ([15]; Human immunodeficiency virus 1, HuT78, read-out: IC50 cell-cell fusion) of the same compound?
A: 1100 nM

Q: And the IC50 ([15]; Human immunodeficiency virus 1, read-out: IC50 syncytia formation SupT1 + HUT-78/NL4.3 n = 4)?
A: 1120 nM

Q: What about the IC50 [16] of the same compound?
A: 404 nM

Q: What about the IC50 [17] of the same compound?
A: 50.3 nM

Q: What about the IC50 ([18]; Human immunodeficiency virus 1, MT4, read-out: IC50 MT-4 281F12 res.) of the same compound?
A: 399 nM

Q: What about the IC50 ([18]; Human immunodeficiency virus 1, MT4, read-out: IC50 against HIV-1 NL4.3 281F12res virus) of the same compound?
A: 400 nM and 0.317 µg/mL

Q: And the IC50 [19]?
A: 21.1 nM

Q: And the IC50 [20]?
A: 22000 nM
